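1) Cells in 96-well plates. 2) Compound, 48 h, 5 concentrations. 3) Linear interpolation between surrounding doses. 4) Unreached endpoint = highest concentration. TGI: total growth inhibition.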

Some test systems named below: OVCAR-5 ovarian; EKVX NSCLC; OVCAR-4 ovarian; M14 melanoma; SF-295 CNS; RPMI-8226 leukemia; SR leukemia; KM20L2 colon; UO-31 renal; M19-MEL melanoma; CCRF-CEM leukemia.
Assay in all cases: NCI-60 cell line screen, 48 h

For `COc1ccc(NC(=O)CC(=O)n2nc(-c3ccccc3)c(N=Nc3ccc(C)cc3)c2-c2ccccc2)cc1`, the TGI is greater than 100 µM in the assay with OVCAR-5 ovarian; greater than 51.4 µM in the assay on EKVX NSCLC; 53.8 µM in the assay with OVCAR-4 ovarian; greater than 100 µM with M14 melanoma; 52.2 µM with SF-295 CNS; greater than 100 µM in the assay on RPMI-8226 leukemia. The TGI in the assay on SR leukemia is 98.3 µM; with KM20L2 colon, greater than 100 µM; in the assay on UO-31 renal, 55.3 µM; in the assay on M19-MEL melanoma it was greater than 100 µM; in the assay on CCRF-CEM leukemia, greater than 100 µM.

Take `COC(=O)c1nc(N)[nH]c(=O)c1-c1ccc(Cl)cc1`: the TGI with OVCAR-5 ovarian, in the assay with EKVX NSCLC, in the assay with OVCAR-4 ovarian, in the assay with M14 melanoma, in the assay with SF-295 CNS and in the assay with RPMI-8226 leukemia was greater than 100 µM each time. For the same molecule, the TGI in the assay on SR leukemia was greater than 86.6 µM; in the assay with KM20L2 colon, greater than 100 µM; in the assay with UO-31 renal, greater than 100 µM; in the assay with M19-MEL melanoma, greater than 100 µM; in the assay with CCRF-CEM leukemia it was greater than 100 µM.

For `CC(C)CCC[C@@H](C)C1CCC2[C@@H]3CC=C4C[C@@H](OC(=O)CCC(=O)NCC[N+](C)(C)CCCS(=O)(=O)[O-])CC[C@]4(C)C3CC[C@@]21C` (stereo partly drawn), the TGI in the assay with EKVX NSCLC is 79.5 µM; with OVCAR-4 ovarian, 34.5 µM; in the assay with M14 melanoma it was 36 µM; with SF-295 CNS it was 31.6 µM; in the assay on RPMI-8226 leukemia it was 45.9 µM; in the assay on KM20L2 colon, greater than 100 µM. The TGI in the assay on UO-31 renal is greater than 100 µM; in the assay with M19-MEL melanoma it was 33.4 µM; in the assay on CCRF-CEM leukemia, 42.6 µM.

In the case of `Cc1cccc2c1NC(c1c(C)[nH]c3ccccc13)C2` (stereo not drawn), the TGI in the assay on OVCAR-5 ovarian, in the assay on EKVX NSCLC, in the assay with M14 melanoma, in the assay on SF-295 CNS, in the assay on RPMI-8226 leukemia and in the assay with SR leukemia was greater than 100 µM throughout. For the same molecule, the TGI with KM20L2 colon, in the assay on UO-31 renal, in the assay with M19-MEL melanoma and in the assay with CCRF-CEM leukemia was greater than 100 µM each time.

For the molecule `Cn1c(=O)c(C2c3ccccc3Oc3c2c(=O)n(C)c2ccccc32)c(O)c2ccccc21` (stereo not drawn), the TGI with OVCAR-5 ovarian, in the assay on EKVX NSCLC, with OVCAR-4 ovarian, in the assay on M14 melanoma, in the assay with SF-295 CNS and in the assay with RPMI-8226 leukemia was greater than 100 µM in each case. Besides, the TGI in the assay with SR leukemia, in the assay with KM20L2 colon, in the assay on UO-31 renal and in the assay on M19-MEL melanoma was greater than 100 µM in each case.

Turning to `COc1ccc2c(c1)C(CCN)C(=O)N2` (stereo not drawn), the TGI in the assay on OVCAR-5 ovarian, with EKVX NSCLC, in the assay on OVCAR-4 ovarian, with M14 melanoma, with SF-295 CNS and in the assay on RPMI-8226 leukemia was greater than 100 µM throughout. Further, the TGI with KM20L2 colon, in the assay with M19-MEL melanoma and in the assay with CCRF-CEM leukemia was greater than 100 µM each time.

On to `O=C(CC1Sc2ccccc2NC1=O)Nc1ccc([N+](=O)[O-])cc1[N+](=O)[O-]` (stereo not drawn), for which the TGI came out at 62.3 µM in the assay on OVCAR-5 ovarian; 69.2 µM with EKVX NSCLC; 52.6 µM in the assay with OVCAR-4 ovarian; 31.2 µM in the assay on M14 melanoma; 34.2 µM in the assay with SF-295 CNS; 32.3 µM with RPMI-8226 leukemia. In addition, the TGI in the assay with KM20L2 colon turned out to be 79.5 µM; in the assay with UO-31 renal, 25.1 µM; in the assay on M19-MEL melanoma it was 30.3 µM; in the assay on CCRF-CEM leukemia it was 39.6 µM.

Regarding `CCCCCCCCOCC(O)COC` (stereo not drawn), the TGI in the assay with OVCAR-5 ovarian, in the assay with OVCAR-4 ovarian, in the assay on M14 melanoma, with SF-295 CNS, in the assay on RPMI-8226 leukemia and in the assay with SR leukemia was greater than 100 µM each time. Further, the TGI with UO-31 renal, in the assay with M19-MEL melanoma and with CCRF-CEM leukemia was greater than 100 µM throughout.

As for `O=C1/C=C(/c2ccc(O)cc2)[C@H](O)Cc2ccc(OC3OC(CO)C(O)C(O)C3O)cc2O1` (stereo partly drawn) (tested in a mixture with another compound), the TGI in the assay with OVCAR-5 ovarian, in the assay with EKVX NSCLC, in the assay with OVCAR-4 ovarian, in the assay on M14 melanoma, with SF-295 CNS and in the assay with RPMI-8226 leukemia was greater than 100 µM in each case. Moreover, the TGI with KM20L2 colon, in the assay on UO-31 renal and with M19-MEL melanoma was greater than 100 µM each time.

For `CCC(C)CNC1=C(NC(C)=O)C(=O)c2ccccc2C1=O` (stereo not drawn), the TGI with EKVX NSCLC, in the assay on OVCAR-4 ovarian, with M14 melanoma, with SF-295 CNS, with SR leukemia and in the assay with KM20L2 colon was greater than 100 µM each time. In addition, the TGI was greater than 100 µM with UO-31 renal, 42.6 µM in the assay with M19-MEL melanoma and greater than 100 µM in the assay on CCRF-CEM leukemia.

For the molecule `COc1cc(OC)c(Oc2cccc(OC)c2OC)c(OC)c1`, the TGI in the assay with OVCAR-5 ovarian, in the assay on EKVX NSCLC, with OVCAR-4 ovarian, in the assay with M14 melanoma, in the assay with SF-295 CNS and in the assay with SR leukemia was greater than 100 µM throughout. The TGI in the assay with KM20L2 colon, with UO-31 renal, with M19-MEL melanoma and in the assay on CCRF-CEM leukemia was greater than 100 µM throughout.

In the case of `COc1ccccc1NC(=O)CC(=O)NNCC(=O)Nc1nc(-c2ccccc2)cs1`, the TGI with EKVX NSCLC, with OVCAR-4 ovarian, in the assay with M14 melanoma, with SF-295 CNS, with RPMI-8226 leukemia and in the assay on KM20L2 colon was greater than 100 µM each time. Further, the TGI in the assay with M19-MEL melanoma and with CCRF-CEM leukemia was greater than 100 µM throughout.

For `CCOc1cccc2cccnc12`, the TGI in the assay with OVCAR-5 ovarian, with EKVX NSCLC, with OVCAR-4 ovarian, with M14 melanoma, in the assay on SF-295 CNS and with RPMI-8226 leukemia was greater than 100 µM throughout. Also, the TGI in the assay on KM20L2 colon, in the assay with UO-31 renal and in the assay on CCRF-CEM leukemia was greater than 100 µM each time.

For the molecule `CC(=O)OCC1OC(n2c(-c3ccc(N)cc3)cc(-c3ccco3)c(C#N)c2=O)C(OC(C)=O)C(OC(C)=O)C1OC(C)=O` (stereo not drawn), the TGI with OVCAR-5 ovarian, with EKVX NSCLC, in the assay on OVCAR-4 ovarian, in the assay with M14 melanoma, in the assay on SF-295 CNS and with SR leukemia was greater than 50 µM throughout. The TGI with KM20L2 colon, in the assay on UO-31 renal and with M19-MEL melanoma was greater than 50 µM each time.
